Measurements reported in ChEMBL document CHEMBL5543150, “Design, Synthesis, and Pharmacological Evaluation of Spiro[carbazole-3,3'-pyrrolidine] Derivatives as cGAS Inhibitors for Treatment of Acute Lung Injury” (J Med Chem, 2024).
Values joined by “and” are separate entries in the source; they are usually repeats but may differ in a detail not shown here. Equal values may be shown once.

Key:
[1] = Volume of distribution at steady state in rat at 1 mg/kg, iv; conditions: in vivo
Cyclic GMP-AMP synthase [2] = biological target: T1, Cyclic GMP-AMP synthase (Mus musculus, UniProt Q8C6L5); assay: Inhibition of cGAS in dsDNA activated mouse RAW-Lucia ISG cells preincubated for 1 hr followed by cGAMP addition and measured after 24 hrs by luminescence based QUANTI-Luc assay
T1 sequence (Q8C6L5 whole entry): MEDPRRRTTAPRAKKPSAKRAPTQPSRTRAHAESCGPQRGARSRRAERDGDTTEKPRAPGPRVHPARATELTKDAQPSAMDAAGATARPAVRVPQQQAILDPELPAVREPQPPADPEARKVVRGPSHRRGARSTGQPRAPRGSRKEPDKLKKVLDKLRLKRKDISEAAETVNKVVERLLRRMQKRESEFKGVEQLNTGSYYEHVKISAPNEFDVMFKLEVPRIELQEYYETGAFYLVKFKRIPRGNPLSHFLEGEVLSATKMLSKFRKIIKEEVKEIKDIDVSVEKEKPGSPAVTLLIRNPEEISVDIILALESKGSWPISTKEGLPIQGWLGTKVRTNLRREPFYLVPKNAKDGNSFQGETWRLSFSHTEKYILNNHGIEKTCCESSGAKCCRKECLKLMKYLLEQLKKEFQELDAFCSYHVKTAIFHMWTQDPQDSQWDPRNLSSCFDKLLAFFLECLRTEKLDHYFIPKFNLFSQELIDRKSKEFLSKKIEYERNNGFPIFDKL

Cyclic GMP-AMP synthase [3] = biological target: T2, Cyclic GMP-AMP synthase (Homo sapiens, UniProt Q8N884); assay: Inhibition of cGAS in human THP1-Dual cells preincubated for 1 hr followed by cGAMP addition and measured after 24 hrs by luminescence based QUANTI-Luc assay
T2 sequence (Q8N884 whole entry): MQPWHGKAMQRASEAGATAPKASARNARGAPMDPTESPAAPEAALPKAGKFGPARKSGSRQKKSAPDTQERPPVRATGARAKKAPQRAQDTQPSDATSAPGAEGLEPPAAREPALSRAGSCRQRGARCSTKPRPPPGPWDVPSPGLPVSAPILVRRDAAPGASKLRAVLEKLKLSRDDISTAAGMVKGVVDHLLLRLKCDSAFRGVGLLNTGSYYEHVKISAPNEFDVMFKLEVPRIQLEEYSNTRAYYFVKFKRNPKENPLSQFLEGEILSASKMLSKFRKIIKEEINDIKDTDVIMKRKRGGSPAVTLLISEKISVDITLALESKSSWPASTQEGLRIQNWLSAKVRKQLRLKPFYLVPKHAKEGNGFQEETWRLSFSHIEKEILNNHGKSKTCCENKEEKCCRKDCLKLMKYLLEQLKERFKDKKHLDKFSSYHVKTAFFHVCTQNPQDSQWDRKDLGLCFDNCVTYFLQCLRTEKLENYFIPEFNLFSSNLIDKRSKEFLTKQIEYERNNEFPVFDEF

in vivo [4] = conditions: rat, po, 3 mg/kg
Description: Cmax in rat at 3 mg/kg, po

in vivo [5] = conditions: rat, po, 3 mg/kg; remark: listed apart in the source
Description: Tmax in rat at 3 mg/kg, po

in vivo [6] = conditions: rat, po, 3 mg/kg; remark: listed apart in the source
Description: AUC last in rat at 3 mg/kg, po

[7] = MRT last in rat at 1 mg/kg, iv; conditions: in vivo
in vivo [8] = conditions: rat, iv, 1 mg/kg
[9] = MRT last in rat at 3 mg/kg, po; conditions: in vivo
Cyclic GMP-AMP synthase [10] = biological target: T1, Cyclic GMP-AMP synthase; assay: Inhibition of cGAS in mouse RAW-Lucia ISG cells preincubated for 1 hr followed by cGAMP addition and measured after 24 hrs by luminescence based QUANTI-Luc assay
Cyclic GMP-AMP synthase [11] = biological target: T2, Cyclic GMP-AMP synthase; assay: Inhibition of full length recombinant human cGAS expressed in Escherichia coli BL21 (DE3) incubated for 7 hrs by Kinase-glo max luminescent kinase assay
Cyclic GMP-AMP synthase [12] = biological target: T2, Cyclic GMP-AMP synthase; assay: Inhibition of cGAS in dsDNA stimulated human THP-1 cells assessed as inhibition of IFNB1 mRNA level by qRT-PCR analysis
Cyclic GMP-AMP synthase [13] = biological target: T2, Cyclic GMP-AMP synthase; assay: Binding affinity to human cGAS assessed as dissociation constant measured upto 240 secs by surface plasmon resonance assay
[14] = Cytotoxicity against mouse RAW-Lucia ISG cells incubated for 24 hrs by CCK-8 method
[15] = Half life in rat at 1 mg/kg, iv; conditions: in vivo
[16] = Half life in rat at 3 mg/kg, po; conditions: in vivo
in vivo [17] = conditions: rat, po, 3 mg/kg; remark: listed apart in the source
Description: Oral bioavailability in rat at 3 mg/kg

in vivo [18] = conditions: rat, iv, 1 mg/kg; remark: listed apart in the source
THP1-Dual = assay: Cytotoxicity against human THP1-Dual cells incubated for 24 hrs by CCK-8 method
Cyclic GMP-AMP synthase [19] = biological target: T2, Cyclic GMP-AMP synthase; assay: Inhibition of cGAS in dsDNA activated human THP1-Dual cells preincubated for 1 hr followed by cGAMP addition and measured after 24 hrs by luminescence based QUANTI-Luc assay
Cyclic GMP-AMP synthase [20] = biological target: T1, Cyclic GMP-AMP synthase; assay: Inhibition of mouse cGas incubated for 120 mins
Cyclic GMP-AMP synthase [21] = biological target: T2, Cyclic GMP-AMP synthase; assay: Inhibition of human cGas incubated for 120 mins
Cyclic GMP-AMP synthase [22] = biological target: T1, Cyclic GMP-AMP synthase

Structure (SMILES)	IC50 (Cyclic GMP-AMP synthase [3]) [µM]	CC50 (THP1-Dual) [µM]	also measured
Cn1ccc(-c2cc(Cl)c(Cl)c3[nH]c4c(c23)CN(C(=O)CO)CC4)n1	4.82	–	Vd [1]: 1.88 L/kg; IC50 (Cyclic GMP-AMP synthase [2]): 14.6 µM; Cmax (in vivo [4]): 375 ng/mL; Tmax (in vivo [5]): 2.67 h; AUC(0-t) (in vivo [6]): 1520 ng·h/mL; MRT last [7]: 1.5 h; clearance (in vivo [8]): 20.7 mL/min/kg; MRT last [9]: 3.56 h; IC50 (Cyclic GMP-AMP synthase [10]): 14.6 µM and > 10 µM; IC50 (Cyclic GMP-AMP synthase [11]): 51 nM; IC50 (Cyclic GMP-AMP synthase [12]): 1700 nM; Kd (Cyclic GMP-AMP synthase [13]): 53 nM; CC50 [14]: 51.8 µM; half-life [15]: 61.8 min; half-life [16]: 78.6 min; bioavailability (in vivo [17]): 64.1%; AUC(0-t) (in vivo [18]): 792 ng·h/mL
Cn1ccc(-c2cc(Cl)c(Cl)c3[nH]c4c(c23)CC2(CC4)CCN(C(=O)CO)CC2)n1	12.9	> 50	–
O=C(CO)N1CCC2(CCc3[nH]c4c(Cl)c(Cl)cc(-c5ccc(C(F)(F)F)nc5)c4c3C2)C1 (stereo not given)	8.66	31.7	–
O=C(CO)N1CCC2(CCc3[nH]c4c(Cl)c(Cl)cc(-c5ccnc(F)c5)c4c3C2)C1 (stereo not given)	6.27	13.6	–
O=C(CO)N1CCC2(CCc3[nH]c4c(Cl)c(Cl)cc(-c5ccnc(OC(F)F)c5)c4c3C2)C1 (stereo not given)	6.41	13.2	–
Cn1cc(-c2cc(Cl)c(Cl)c3[nH]c4c(c23)CC2(CC4)CCN(C(=O)CO)C2)cn1 (stereo not given)	24.7	> 50	–
O=C(CO)N1CCC2(CCc3[nH]c4c(Cl)c(Cl)cc(-c5cnn(C6CCNCC6)c5)c4c3C2)C1 (stereo not given)	12.9	> 50	–
C[C@@H](O)C(=O)N1CCC2(CCc3[nH]c4c(Cl)c(Cl)cc(-c5ccnc(C(F)(F)F)c5)c4c3C2)C1 (stereo not given in full)	17.6	39.1	–
Cn1ccc(-c2cc(Cl)c(Cl)c3[nH]c4c(c23)CC2(CC4)CN(C(=O)CO)C2)n1	36	17.7	–
O=C(CO)N1CCC2(CCc3[nH]c4c(Cl)c(Cl)cc(-c5ccnc(C(F)(F)F)c5)c4c3C2)C1 (stereo not given)	4.45	34	Vd [1]: 4.48 L/kg; IC50 (Cyclic GMP-AMP synthase [2]): 11.4 µM; Cmax (in vivo [4]): 223 ng/mL; Tmax (in vivo [5]): 0.667 h; AUC(0-t) (in vivo [6]): 920 ng·h/mL; MRT last [7]: 3.59 h; clearance (in vivo [8]): 15.5 mL/min/kg; IC50 (Cyclic GMP-AMP synthase [19]): 4.45 µM; MRT last [9]: 2.99 h; IC50 (Cyclic GMP-AMP synthase [10]): 11.4 µM; half-life [15]: 202 min; half-life [16]: 109 min; bioavailability (in vivo [17]): 30%; AUC(0-t) (in vivo [18]): 1070 ng·h/mL
Cn1ccc(-c2cc(Cl)c(Cl)c3c2[C@@H]2CN(C(=O)CO)CC[C@@H]2N3)n1	> 50	> 50	–
O=C(CO)N1CCC2(CCc3[nH]c4c(Cl)c(Cl)cc(-c5cnc(C(F)(F)F)nc5)c4c3C2)C1 (stereo not given)	7.54	34	IC50 (Cyclic GMP-AMP synthase [19]): 7.54 µM
Cn1ccc(-c2cc(Cl)c(Cl)c3[nH]c4c(c23)CC(NC(=O)CO)CC4)n1 (stereo not given)	> 50	> 50	–
Cn1ccc(-c2cc(Cl)c(Cl)c3[nH]c4c(c23)CC2(CC4)CCN(C(=O)CO)C2)n1 (stereo not given)	7.65	> 50	IC50 (Cyclic GMP-AMP synthase [2]): 8.91 µM; IC50 (Cyclic GMP-AMP synthase [19]): 7.65 µM; IC50 (Cyclic GMP-AMP synthase [10]): 8.91 µM
CS(=O)(=O)CC(=O)N1CCC2(CCc3[nH]c4c(Cl)c(Cl)cc(-c5ccnc(C(F)(F)F)c5)c4c3C2)C1 (stereo not given)	9.48	10.4	–
Cn1ccc(-c2cc(Cl)c(Cl)c3[nH]c4c(c23)CC2(CCN(C(=O)CO)CC2)C4)n1	37.4	> 50	–
N#Cc1cc(-c2cc(Cl)c(Cl)c3[nH]c4c(c23)CC2(CC4)CCN(C(=O)CO)C2)ccn1 (stereo not given)	6.35	10.3	–
Nc1cc(-c2cc(Cl)c(Cl)c3[nH]c4c(c23)CC2(CC4)CCN(C(=O)CO)C2)ccn1 (stereo not given)	6.45	> 50	IC50 (Cyclic GMP-AMP synthase [2]): 4.71 µM; IC50 (Cyclic GMP-AMP synthase [19]): 6.45 µM; IC50 (Cyclic GMP-AMP synthase [10]): 4.71 µM

Structure (SMILES)	IC50 (Cyclic GMP-AMP synthase [3]) [µM]	CC50 (THP1-Dual) [µM]	also measured
C[C@H](O)[C@@H](N)C(=O)N1CCC2(CCc3[nH]c4c(Cl)c(Cl)cc(-c5ccnc(C(F)(F)F)c5)c4c3C2)C1 (stereo not given in full)	11	30.3	–
NCC(=O)N1CCC2(CCc3[nH]c4c(Cl)c(Cl)cc(-c5ccnc(C(F)(F)F)c5)c4c3C2)C1 (stereo not given)	3.41	11.1	–
C[C@@H](N)C(=O)N1CCC2(CCc3[nH]c4c(Cl)c(Cl)cc(-c5ccnc(C(F)(F)F)c5)c4c3C2)C1 (stereo not given in full)	6.94	7.08	–
O=C(CO)N1CCC2(CCc3[nH]c4c(Cl)c(Cl)cc(-c5ccc(F)nc5F)c4c3C2)C1 (stereo not given)	7.15	33.4	–
Cn1nc(C(F)(F)F)cc1-c1cc(Cl)c(Cl)c2[nH]c3c(c12)CC1(CC3)CCN(C(=O)CO)C1 (stereo not given)	5.82	17.3	–
Nc1ccc(-c2cc(Cl)c(Cl)c3[nH]c4c(c23)CC2(CC4)CCN(C(=O)CO)C2)cn1 (stereo not given)	8.04	47.8	IC50 (Cyclic GMP-AMP synthase [19]): 8.04 µM
O=C(CO)N1CCC2(CCc3[nH]c4c(Cl)c(Cl)cc(-c5cn[nH]c5)c4c3C2)C1 (stereo not given)	5.86	13.7	–
O=C(CO)N1CCC2(CCc3[nH]c4c(Cl)c(Cl)cc(-c5ccnc(C(F)F)c5)c4c3C2)C1 (stereo not given)	6.43	10.6	–
C[C@H](N)C(=O)N1CCC2(CCc3[nH]c4c(Cl)c(Cl)cc(-c5ccnc(C(F)(F)F)c5)c4c3C2)C1 (stereo not given in full)	4.3	16.4	–
O=C(CO)N1CCC2(CCc3[nH]c4c(Cl)c(Cl)cc(-c5cnn(C(F)F)c5)c4c3C2)C1 (stereo not given)	5.8	37.7	IC50 (Cyclic GMP-AMP synthase [2]): 8.69 µM; IC50 (Cyclic GMP-AMP synthase [19]): 5.8 µM; IC50 (Cyclic GMP-AMP synthase [10]): 8.69 µM
Cn1ncc(-c2cc(Cl)c(Cl)c3[nH]c4c(c23)CC2(CC4)CCN(C(=O)CO)C2)n1 (stereo not given)	10.5	26.3	–
N#Cc1ncc(-c2cc(Cl)c(Cl)c3[nH]c4c(c23)CC2(CC4)CCN(C(=O)CO)C2)cc1F (stereo not given)	7.82	33.1	–
C[C@H](O)C(=O)N1CCC2(CCc3[nH]c4c(Cl)c(Cl)cc(-c5ccnc(C(F)(F)F)c5)c4c3C2)C1 (stereo not given in full)	38.8	12.7	–
Cc1nn(-c2cc3ccc(Cl)c(Cl)c3[nH]2)c(O)c1C1OC(=O)c2ccccc21 (stereo not given)	–	–	IC50 (Cyclic GMP-AMP synthase [20]): 2940 nM; IC50 (Cyclic GMP-AMP synthase [21]): 110 nM
O=C(CO)N1CCC2(CCc3[nH]c4c(Cl)c(Cl)cc(-c5ccnc(C(F)(F)F)n5)c4c3C2)C1 (stereo not given)	4.26	14.4	–
CC(C)=C(C#N)C(=O)N1CCC2(CCc3[nH]c4c(Cl)c(Cl)cc(-c5ccnc(C(F)(F)F)c5)c4c3C2)C1 (stereo not given)	8.46	45.1	–
C#CC(=O)N1CCn2cccc2C1c1ccccc1 (stereo not given)	–	–	IC50 (Cyclic GMP-AMP synthase [22]): 970 nM
